In assay [1] the target is T1, Sodium-dependent noradrenaline transporter (Homo sapiens, UniProt P23975). The assay can be described thus: Inhibition of recombinant human NET expressed in HEK293 […] assessed as reduction in [3H]-norepinephrine uptake incubated for 22 mins by micro beta scintillation counting analysis.
For assay [2], the target named is T2, Alpha-1A adrenergic receptor (Homo sapiens, UniProt P35348).
T2 sequence (P35348 whole entry): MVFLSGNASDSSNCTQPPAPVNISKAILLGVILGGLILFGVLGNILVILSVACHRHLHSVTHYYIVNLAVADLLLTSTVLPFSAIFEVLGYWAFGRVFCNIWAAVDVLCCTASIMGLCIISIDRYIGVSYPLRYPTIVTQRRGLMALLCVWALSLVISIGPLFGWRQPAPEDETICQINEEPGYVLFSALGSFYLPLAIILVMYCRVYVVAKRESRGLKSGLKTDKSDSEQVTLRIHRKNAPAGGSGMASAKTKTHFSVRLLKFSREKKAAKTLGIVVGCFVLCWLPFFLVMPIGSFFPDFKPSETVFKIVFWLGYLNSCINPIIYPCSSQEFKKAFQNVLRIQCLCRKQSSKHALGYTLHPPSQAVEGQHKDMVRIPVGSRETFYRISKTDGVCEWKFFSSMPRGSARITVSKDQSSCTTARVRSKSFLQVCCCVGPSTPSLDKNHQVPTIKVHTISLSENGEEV
The assay can be described thus: Displacement of [3H]Prazosin from human adrenergic alpha1A receptor. On the technique in general: Loss of bound radioactivity is the signal in a displacement assay; it reports binding, not function.

The target in assay [3] is T3, Sodium-dependent dopamine transporter (Homo sapiens, UniProt Q01959). The assay can be described thus: Inhibition of [3H]WIN35,428 binding to recombinant human DAT expressed in HEK293 cell membranes at 10 uM pre-incubated for 10 mins before radioligand addition and measured 90 mins after radioligand addition by micro beta scintillation counting analysis relative to control.

The target of assay [4] is T4, 5-hydroxytryptamine receptor 2C (Homo sapiens, UniProt P28335).
T4 sequence (P28335 whole entry): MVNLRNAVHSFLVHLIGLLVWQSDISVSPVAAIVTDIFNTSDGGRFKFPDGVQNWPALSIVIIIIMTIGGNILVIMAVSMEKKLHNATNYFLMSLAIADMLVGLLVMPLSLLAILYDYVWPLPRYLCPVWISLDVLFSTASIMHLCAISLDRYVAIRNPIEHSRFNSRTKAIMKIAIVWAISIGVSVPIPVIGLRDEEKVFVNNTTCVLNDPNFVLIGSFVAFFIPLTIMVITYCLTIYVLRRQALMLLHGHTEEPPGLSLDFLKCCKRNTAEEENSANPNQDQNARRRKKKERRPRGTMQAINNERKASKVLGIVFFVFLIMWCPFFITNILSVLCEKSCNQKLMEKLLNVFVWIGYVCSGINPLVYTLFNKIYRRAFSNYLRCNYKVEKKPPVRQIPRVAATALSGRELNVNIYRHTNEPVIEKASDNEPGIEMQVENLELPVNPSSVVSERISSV
The assay can be described thus: Displacement of [3H]Mesulergine from human 5-HT2C receptor.

Assay [5] concerns the target T3, Sodium-dependent dopamine transporter. The assay can be described thus: Inhibition of recombinant human DAT expressed in HEK293 cell […] as reduction in [3H]-DA uptake incubated for 22 mins by micro beta scintillation counting analysis.
A further assay addresses T5, Adenosine receptor A3 (Homo sapiens, UniProt P0DMS8).
T5 sequence (P0DMS8 whole entry): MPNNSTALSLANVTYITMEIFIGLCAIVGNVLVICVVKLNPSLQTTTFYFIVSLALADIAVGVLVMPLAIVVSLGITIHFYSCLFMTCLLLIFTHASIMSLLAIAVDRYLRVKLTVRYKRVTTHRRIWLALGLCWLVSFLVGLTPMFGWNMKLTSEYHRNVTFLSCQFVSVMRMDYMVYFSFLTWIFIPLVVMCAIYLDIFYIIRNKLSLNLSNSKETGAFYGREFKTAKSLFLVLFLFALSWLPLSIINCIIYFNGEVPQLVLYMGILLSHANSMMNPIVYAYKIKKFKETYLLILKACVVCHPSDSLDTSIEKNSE
The assay can be described thus: Displacement of [125I]N6-(4-amino-3-iodobenzyl)adenosine-5'-N-methyluronamide from human A3AR expressed in HEK293T cells pre-incubated for 10 mins before radioligand addition and measured 90 mins after radioligand addition by micro beta scintillation counting analysis relative to control. The format is cell-based, HEK-293T.

The target in assay [6] is T1, Sodium-dependent noradrenaline transporter. The assay can be described thus: Enhancing of [125I]RTI-55 binding to recombinant human NET expressed in HEK293 cell membranes preincubated for 10 mins followed by radioligand addition measured after 90 mins by micro beta scintillation counting analysis. The arrangement: concentration or dose not given beside the values.

Activity calls are given as the source filed them. The rule behind the calls is not given here.

T1 sequence (P23975 whole entry): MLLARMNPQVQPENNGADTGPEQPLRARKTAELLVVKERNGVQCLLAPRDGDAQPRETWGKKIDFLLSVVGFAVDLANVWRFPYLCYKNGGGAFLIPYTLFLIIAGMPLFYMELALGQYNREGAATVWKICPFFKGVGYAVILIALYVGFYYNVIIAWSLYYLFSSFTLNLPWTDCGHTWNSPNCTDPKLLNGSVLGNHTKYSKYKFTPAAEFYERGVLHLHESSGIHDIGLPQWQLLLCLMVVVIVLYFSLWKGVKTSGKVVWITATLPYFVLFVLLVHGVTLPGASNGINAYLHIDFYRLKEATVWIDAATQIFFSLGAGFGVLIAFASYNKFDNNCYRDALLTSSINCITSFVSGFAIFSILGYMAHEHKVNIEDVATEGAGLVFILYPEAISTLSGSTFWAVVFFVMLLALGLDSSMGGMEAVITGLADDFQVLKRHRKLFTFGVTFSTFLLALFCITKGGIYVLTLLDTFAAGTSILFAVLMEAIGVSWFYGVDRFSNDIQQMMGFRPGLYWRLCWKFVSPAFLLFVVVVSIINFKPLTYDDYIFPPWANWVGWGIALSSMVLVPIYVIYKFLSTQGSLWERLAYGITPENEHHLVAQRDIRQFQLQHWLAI
T3 sequence (Q01959 whole entry): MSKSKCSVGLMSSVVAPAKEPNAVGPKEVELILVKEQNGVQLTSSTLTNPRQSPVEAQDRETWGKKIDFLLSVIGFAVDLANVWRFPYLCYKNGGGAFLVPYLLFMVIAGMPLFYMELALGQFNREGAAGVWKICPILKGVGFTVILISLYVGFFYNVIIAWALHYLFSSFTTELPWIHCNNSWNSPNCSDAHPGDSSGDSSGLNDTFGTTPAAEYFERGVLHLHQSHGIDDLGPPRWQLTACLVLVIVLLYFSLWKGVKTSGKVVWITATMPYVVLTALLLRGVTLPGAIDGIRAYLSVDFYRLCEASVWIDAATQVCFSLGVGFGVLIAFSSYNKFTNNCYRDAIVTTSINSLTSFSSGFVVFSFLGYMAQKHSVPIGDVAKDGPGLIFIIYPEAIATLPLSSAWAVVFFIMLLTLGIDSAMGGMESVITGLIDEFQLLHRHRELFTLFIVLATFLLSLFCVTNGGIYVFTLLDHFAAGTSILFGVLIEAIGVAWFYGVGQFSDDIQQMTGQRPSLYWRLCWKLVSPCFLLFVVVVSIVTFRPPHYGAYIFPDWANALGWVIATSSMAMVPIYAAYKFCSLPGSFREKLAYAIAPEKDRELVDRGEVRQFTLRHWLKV

For the compound `CNc1nc(C#Cc2ccc(Cl)s2)nc2c1ncn2[C@@H]1O[C@H](C(=O)OC)[C@@H](O)[C@H]1O`, the half-maximal inhibitory concentration (IC50) in assay [1] worked out at 2690 nM; in assay [5] it was 396 nM. Besides, the inhibition constant (Ki) in assay [2] is over 10000 nM; in assay [4], 3240 nM; on Adenosine receptor A3, 11.5 nM. Moreover, the inhibition result in assay [3] is “inactive”. Besides, the Activity in assay [6] came out at 227%. Further, in assay [6] (read-out: EC50), the concentration for a half-maximal effect (EC50) stood at 1520 nM.

For orientation: IC50 means the point on the concentration scale where inhibition reaches its midpoint. The term Ki denotes the dissociation constant of the complex between target and ligand, obtained from inhibition or displacement. In general, EC50 refers to the concentration that produces a half-maximal response.
